Literature values, collected in patent publication US20250009831A1, “COMBINATION OF SCUTELLARIA EXTRACTS WITH CITRUS BERGAMIA OR CYNARA CARDUNCULUS EXTRACTS AND FORMULATIONS CONTAINING THEM” (AKHYNEX S.R.L., priority 2021, published 2025).

Tested on: rats treated with orotic acid to induce fatty liver disease

SMILES: O=C(O)[C@H]1O[C@@H](Oc2cc3oc(-c4ccccc4)cc(=O)c3c(O)c2O)[C@H](O)[C@@H](O)[C@@H]1O [baicalin]
- FFA-induced lipotoxicity (rat, in vivo): had a preventive effect on FFA-induced lipotoxicity
- accumulation of fats in the liver (rats treated with orotic acid): inhibited the accumulation of fats in the liver
- hypertrophy of the hepatocytes (rats treated with orotic acid): attenuated hypertrophy of the hepatocytes
